Data reported in patent publication US20160220710A1, “COMPOSITIONS AND METHODS FOR DELIVERING PHARMACEUTICAL AGENTS” (THE REGENTS OF THE UNIVERSITY OF MICHIGAN, priority 2015, published 2016).
Entries after “also recorded” stand apart in the source; their conditions may differ.

Key:
[1] = system: carrageenan-based footpad-edema model; test: Carrageenan footpad edema model, local injection 48 h post carrageenan; format: in vivo, mice; settings: 30 μl, injected 48 h post carrageenan; for subsequent footpad swelling after local injection: 2 mM
Procedure: (§1) Mice Carrageenan Footpad Edema Model. Carrageenan (C1867, Sigma-Aldrich®, 2% in PBS, 30 μl) was injected into the right footpad while PBS (30 μl) was injected in the left footpad as a negative control. For preliminary testing of CFZ as an anti-inflammatory agent, 8-week orally fed mice (CFZ and control) were used. For testing of CFZ in soluble and microcrystal form, naïve 4-5 week old mice were injected with carrageenan first followed by injection of CFZ-A (2 mM in DMSO, 30 μl), CLDIs (2 mM equivalent in PBS, 30 μl) or CFZ-HCl (2 mM equivalent in PBS, 30 μl) at 48 h post carrageenan injection. For control experiments, CFZ-A, CLDIs and CFZ-HCl were injected into the right footpads of naïve 4-5 week old mice. DMSO was used as a control for CFZ-A in the left footpad whereas PBS was used as a control for CLDIs and CFZ-HCl. Footpads were measured (length—l, width—w, three thicknesses—t1, t2, t3) at various time points using a digital vernier calliper and changes in the swelling based on volume of the foot was calculated as per above.

[2] = system: footpad swelling; test: Footpad injections alone in naïve mice; format: in vivo; settings: 2 mM, 30 μl
Procedure: as §1

CC(C)N=c1cc2n(-c3ccc(Cl)cc3)c3ccccc3nc-2cc1Nc1ccc(Cl)cc1.Cl [CFZ-HCl]
footpad swelling inhibition beyond 24 h post therapy ([1]; 2 mM equivalent): sustained for a further 24 h | subsequent footpad swelling after local injection [1]: inhibited for 24 h post therapy | inflammation/swelling after injection alone [2]: did not induce any measurable inflammation; also recorded: no signs of swelling

CC(C)N=c1cc2n(-c3ccc(Cl)cc3)c3ccccc3nc-2cc1Nc1ccc(Cl)cc1.Cl [CFZ-A]
subsequent footpad swelling after local injection [1]: did not lead to a measurable anti-inflammatory response | inflammation/swelling after injection alone [2]: measurable inflammatory response initially; also recorded: some swelling
